Patent publication US6391848B1, “Soybean protein nutraceuticals” (The Regents of the University of California, priority 1999, dated 2002)

Columns and labels:
[1] = tested on: carcinogen-treated cultured cells; conditions: in vitro or in vivo; cited from earlier work
[2] = tested on: carcinogenesis; assay: inhibition of carcinogenesis in in vitro and animal models; conditions: comparable dosages and routes of administration; cell and animal studies
From the text: Exemplary lunasin-del compounds include (again using N→C nomenclature convention) shown to be effective at inhibiting carcinogenesis in in vitro and animal models include:
BBI is an 8 kDa protein that is known to dimerize in solution.

[3] = tested on: mammalian cells; assay: internalization of lunasin into the cell; assay type: cell-based
From the text: (§1) The lunasin polypeptide also contains a functional RGD (arg-gly-asp) motif.
Chromatin Modification and Tumor Suppression. […] (DePinho,1998; Brehm et al, 1998; Magnaghi-Jaulin, 1998; Pazin and Kadonaga, 1997; Hassig et al, 1997; Laherty et al, 1997). For instance, the retinoblastoma protein Rb is complexed with E2F (a family of transcription factors controlled by Rb) and HDAC1 (the major mammalian histone deacetylase which modulates chromatin structure) in mammalian cells. Rb represses E2F-regulated promoter by recruiting HDAC1 which deacetylates core histones causing a tighter association between DNA and nucleosomes, thus impairing the binding of transcription factors to recognition elements in DNA. The Rb/HDAC/E2F complex could be the target for transforming viruses leading to the release of suppression and a fully transformed state. […] Consequently, gene expression is more or less permanently repressed.

[4] = tested on: hypoacetylated chromatin; assay: binding of lunasin to chromatin in cells; assay type: cell-based
From the text: as §1

[5] = tested on: cell membrane integrins; assay: binding to cell membrane integrins in mammalian cell cultures; assay type: cell-based; conditions: exogenously applied; through the RGD tripeptide
From the text: as §1

[6] = tested on: C3H 10T1/2 mouse fibroblast cells; assay: in vitro transformation assay of C3H 10T1/2 cells with carcinogens MCA and DMBA; assay type: cell-based
[7] = tested on: mammalian cells; assay: effect on mitosis and kinetochore assembly of mammalian cells; assay type: cell-based
From the text: as §1

Compound: CC1=C(/C=C/C(C)=C/C=C/C(C)=C/C=C/C=C(C)/C=C/C=C(C)/C=C/C2=C(C)CCCC2(C)C)C(C)(C)CCC1 [b-carotene]
- effect on carcinogenesis after administration of the agent is stopped [1]: reversible effect

Compound: lunasin
- efficacy when substituted for BBI [2]: provides efficacy
- internalization in the cell [3]: gets internalized in the cell via the RGD motif
- binding to chromatin ([4]; exogenously applied to mammalian cell cultures, lunasin that gets into the nucleus): sufficient to effectively bind regions of hypoacetylated chromatin
- binding to chromatin ([4]; lunasin gene transfected and expressed inside the cell): preferentially binds to hypoacetylated chromatin
- binding to cell membrane integrins [5]: binds to cell membrane integrins
- concentration of exogenously applied peptide (as low as) that inhibits transformation into tumorous foci ([6]; carcinogens MCA and DMBA, range 10 nM to 10 mM): 10 nM
- prevention of carcinogen-induced tumor formation compared with BBIC ([6]; equimolar amounts): more effective than BBIC
- inhibition of carcinogen-mediated transformation of fibroblast cells into tumorous foci ([6]; exogenous application, carcinogens MCA and DMBA): inhibits the transformation
- effect on kinetochore assembly ([7]; exogenously applied, internalized lunasin, cells undergo normal mitosis): appears not to affect kinetochore assembly
- effect on mitosis ([7]; when expressed in mammalian cells): antimitotic effect

Compound: vitamin E
- effect on carcinogenesis after administration of the agent is stopped [1]: reversible effect
